Data from article PMC4767720 (Drugs in R&D, 2016).

What was measured:
[1] = Ketoconazole interaction study, plasma pharmacokinetics; type: in vivo, human
[2] = Safety and tolerability assessments in the three clinical studies; type: in vivo, human
syk = conditions: statement of the introduction, no reference given; cited from earlier work
[3] = Microsomal stability of R406 in human hepatic microsomes; type: in vitro ADME; conditions: R406 1 μM, 0.1 mg microsomal protein, NADPH 1 mM, 37 °C, pH 7.4
[4] = Verapamil interaction study, plasma pharmacokinetics; type: in vivo, human
[5] = Rifampicin interaction study, plasma pharmacokinetics; type: in vivo, human
[6] = 10 μM R406, 1 mg protein/mL, 15 min
[7] = R406, 80 mg fostamatinib + ketoconazole (P2), n=8
[8] = R406, 80 mg fostamatinib alone (P1), n=8
[9] = R406, 80 mg fostamatinib, ketoconazole 200 mg twice daily
[10] = R406 in plasma, single oral 80 mg fostamatinib alone (P1), n=8
[11] = R406, 150 mg fostamatinib alone (P1), n=15
[12] = R406 in plasma, single oral 150 mg fostamatinib alone (P1), n=15
[13] = R406, 150 mg fostamatinib + rifampicin (P2), n=15

COc1cc(Nc2ncc(F)c(Nc3ccc4c(n3)N(COP(=O)(O)O)C(=O)C(C)(C)O4)n2)cc(OC)c1OC [Fostamatinib]
plasma levels of R788 ([1]; 80 mg fostamatinib with ketoconazole-placebo or with ketoconazole): negligible
highest plasma concentration of R788 obtained in any subject ([1]; 80 mg fostamatinib with placebo or ketoconazole): < 7 ng/mL
time post-dose beyond which no quantifiable R788 (above 0.5 ng/mL) was obtained ([1]; any subject): 2 h
tolerability ([2]; all three clinical studies, alone and in combination with a CYP3A4 inducer/inhibitor): well tolerated
deaths, serious AEs, withdrawals due to AEs, severe AEs ([2]; any of the three studies): no deaths, serious AEs, withdrawals due to AEs or severe AEs
treatment-emergent AEs in subjects receiving fostamatinib and ketoconazole ([2]; ketoconazole interaction study): No treatment-emergent AEs
total AEs reported ([2]; ketoconazole interaction study, all treatments, N=8): eight
total AEs recorded ([2]; rifampicin interaction study, all arms, all mild): four
AEs considered related to administration of fostamatinib ([2]; verapamil interaction study): None
total AEs reported ([2]; verapamil interaction study, one AE per treatment arm, one mild, two moderate): three
activity against syk compared with R406 (syk): much less active

COc1cc(Nc2ncc(F)c(Nc3ccc4c(n3)NC(=O)C(C)(C)O4)n2)cc(OC)c1O [R529]
activity against syk compared with R406 (syk): much less active

COc1cc(Nc2ncc(F)c(Nc3ccc4c(n3)NC(=O)C(C)(C)O4)n2)cc(OC)c1OC [R406]
microsomal half-life [3]: 0.407 h
increase in R406 exposure with ketoconazole co-administration ([1]; 80 mg fostamatinib, ketoconazole 200 mg twice daily): 2 fold
tmax, median [1, 7]: 2.00 h
t½, geometric mean (GCV %) [1, 7]: 17.7 (31.9) h
tmax, median [1, 8]: 1.25 h
t½, geometric mean (GCV %) [1, 8]: 13.6 (32.1) h
average increase in AUC0–∞ after co-administration of ketoconazole [1, 9]: 102%
average increase in Cmax after co-administration of ketoconazole [1, 9]: 37%
average t½ ([1]; R406, fostamatinib alone): 14.2 h
tmax (value of the text, not the median) ([1]; R406, fostamatinib plus ketoconazole): 1.69 h
average t½ ([1]; R406, fostamatinib with ketoconazole co-administration): 18.4 h
AUC0–∞, geometric mean (GCV %) [1, 10]: 3690 (19.9) ng·h/mL
Cmax, geometric mean (GCV %) [1, 10]: 325 (13.7) ng/mL
effect of verapamil co-administration on R406 Cmax ([4]; 150 mg fostamatinib): no consistent effect
effect of verapamil on R406 tmax ([4]; 150 mg fostamatinib): no consistent effect
subjects with higher R406 AUC after verapamil co-administration ([4]; 150 mg fostamatinib, verapamil 80 mg three times daily): 10 of the 13
t½, geometric mean (GCV %) ([4]; R406, 150 mg fostamatinib + verapamil (P2), n=13): 19.1 (51.1) h
tmax, median ([4]; R406, 150 mg fostamatinib + verapamil (P2), n=14): 1.50 h
tmax, median [4, 11]: 1.48 h
t½, geometric mean (GCV %) [4, 11]: 13.5 (28.4) h
AUC0–∞, geometric mean (GCV %) [4, 12]: 6380 (36.1) ng·h/mL
Cmax, geometric mean (GCV %) [4, 12]: 588 (45.7) ng/mL
reduction in R406 Cmax with rifampicin co-administration ([5]; 150 mg fostamatinib, rifampicin 600 mg once daily): ~60%
effect of rifampicin co-administration on tmax ([5]; R406, 150 mg fostamatinib): no consistent effect
tmax, median [5, 13]: 1.00 h
t½, geometric mean (GCV %) [5, 13]: 10.8 (38.6) h
tmax, median [5, 11]: 2.00 h
t½, geometric mean (GCV %) [5, 11]: 15.0 (30.3) h
AUC0–∞, geometric mean (GCV %) [5, 12]: 6540 (48.5) ng·h/mL
Cmax, geometric mean (GCV %) [5, 12]: 573 (58.7) ng/mL
major metabolite [6]: para-O-demethylated R406, R529
